Source: PubChem BioAssay (NCI)
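Following 48 hours of exposure in 96-well plates, responses at five concentrations were used to interpolate endpoints linearly. GI50 is the concentration that inhibits growth by half. TGI is the concentration that stops growth completely.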

How the values were obtained:
Test in all cases: DTP human tumour cell line panel, 48 h
[1] = tested on: DU-145 prostate
[2] = tested on: MDA-MB-435
[3] = tested on: HS 578T breast
[4] = tested on: BT-549 breast
[5] = tested on: MDA-N
[6] = tested on: PC-3 prostate
[7] = tested on: XF 498 CNS
[8] = tested on: M19-MEL melanoma
[9] = tested on: RXF-631 renal

Row | SMILES | TGI [1] | TGI [2] | TGI [3] | TGI [4] | TGI [5] | TGI [6] | TGI [7] | TGI [8] | GI50 [1] | GI50 [2] | GI50 [3] | GI50 [4] | GI50 [6] | TGI [9]
1 | NCc1nnn(Cc2ccccc2)c1N | > 100 µM | > 100 µM | > 100 µM | > 100 µM | > 100 µM | > 100 µM | – | – | – | – | – | – | – | –
2 | Nc1nc2nc[nH]c2c(=O)[nH]1 | – | – | – | – | – | – | > 100 µM | > 100 µM | – | – | – | – | – | –
3 | CCCc1nc2c(C)cc(-c3nc4ccccc4n3C)cc2n1Cc1ccc(-c2ccccc2C(=O)O)cc1 | > 100 µM | > 100 µM | > 100 µM | > 100 µM | – | > 100 µM | – | – | 44 µM | 33.9 µM | 38.1 µM | 52.3 µM | 29.4 µM | –
4 | O=C(/C=C\c1ccc(Cl)cc1Cl)c1cccs1 | 44.9 µM | 36.2 µM | 75.3 µM | – | 35.8 µM | 35.2 µM | – | – | – | – | – | – | – | –
5 | COc1ccc(/C(C)=N/OC(=O)c2c(-c3ccccc3Cl)noc2C)cc1CN1CCOCC1 | > 100 µM | 57.3 µM | > 100 µM | 54.9 µM | 39.9 µM | 98.1 µM | – | – | – | – | – | – | – | –
6 | Nc1ccn(C2CC(CO)C(O)C2O)c(=O)n1 (stereo not given) | – | – | – | – | – | – | – | > 57.7 µM | – | – | – | – | – | > 57.7 µM
7 | NS(=O)(=O)c1ccc(CCN=C=S)cc1 | 3.83 µM | 3.88 µM | 15.5 µM | 4.37 µM | – | 5.23 µM | – | – | 1.8 µM | 1.91 µM | 3.21 µM | 2.03 µM | 2.03 µM | –
8 | COc1ccc(-c2nc(-c3nc4ccc(OC)cc4[nH]3)cc3c2[nH]c2ccccc23)cc1 | > 100 µM | > 100 µM | > 100 µM | > 100 µM | – | > 100 µM | – | – | 2.06 µM | 4.31 µM | 2.85 µM | 7.1 µM | 1.52 µM | –
9 | CCOC(=O)c1c(C(F)(F)F)n([O-])c2ccc(OC)cc2[n+]1=O | > 100 µM | 76 µM | 46.2 µM | 33.7 µM | – | > 100 µM | – | – | 5.15 µM | 4.47 µM | 4.07 µM | 4.29 µM | 2.99 µM | –
10 | O=C(COc1ccccc1)NS(=O)(=O)c1ccccc1 | – | – | – | – | – | – | – | > 100 µM | – | – | – | – | – | > 100 µM
11 | COc1cc(C(=O)c2cc3c(cc2C)OCO3)cc(OC)c1OC | – | – | > 100 µM | > 100 µM | – | > 100 µM | – | – | – | – | 0.174 µM | 0.211 µM | 0.141 µM | –
12 | CSc1nc2sc3cc(Cl)ccc3n2c(=N)c1C#N | > 100 µM | > 100 µM | > 24.9 µM | > 100 µM | – | > 100 µM | – | – | > 68.7 µM | > 100 µM | 2.89 µM | 25.4 µM | 42.2 µM | –
13 | COc1ccc(/C=C/c2n[nH]c3ccc(N4CCOC4=O)cc23)cc1 | > 100 µM | 38.6 µM | 9.59 µM | 5.32 µM | – | 11.2 µM | – | – | 3.43 µM | 3.2 µM | 3.23 µM | 1.14 µM | 3.22 µM | –
14 | NCCC(O)(P(=O)(O)O)P(=O)(O)O | > 100 µM | > 100 µM | > 100 µM | > 100 µM | – | – | – | – | > 100 µM | > 100 µM | > 100 µM | > 100 µM | – | –
15 | COC(=O)[C@]1(C)CCC[C@@]2(C)C1CCC1=CC3(C(C)C)CCC12OO3 (stereo not given in full) | – | – | – | – | – | – | – | > 100 µM | – | – | – | – | – | > 100 µM
16 | O=C(Nc1c(O)[nH]c(=S)[nH]c1=O)c1ccc2ccccc2n1 | – | – | – | – | – | – | – | > 100 µM | – | – | – | – | – | > 100 µM
17 | O=C1CCC2(CC1)SCCCS2 | – | – | – | – | – | – | > 100 µM | > 100 µM | – | – | – | – | – | –
18 | O=[N+]([O-])c1nccn1COCCF | – | – | – | – | – | – | > 100 µM | > 100 µM | – | – | – | – | – | –
19 | COc1cc2nc(Nc3cccc(F)c3)nc(Nc3cc(C)[nH]n3)c2cc1OC | 3 µM | 3.16 µM | 4.01 µM | 3.2 µM | – | 3.39 µM | – | – | 1.64 µM | 1.63 µM | 1.86 µM | 1.68 µM | 1.68 µM | –
20 | Cc1cc(Cl)cc2c1NC(=O)C2(O)C(C)C(=O)c1ccc(Cl)cc1 (stereo not given) | – | – | – | – | – | – | > 100 µM | 26.2 µM | – | – | – | – | – | –
21 | CC(C)=CC(=O)Cc1nc2cc(C)c(C)cc2[nH]c1=O | – | – | – | – | – | – | – | > 100 µM | – | – | – | – | – | > 100 µM
22 | C=C(C)[C@@H]1CC[C@]2(C)[C@H](CC[C@@H]3[C@H]4[C@H]5OC[C@@]4(CCC5(C)C)CC[C@]32C)[C@@]1(C)CCCN | 3.36 µM | 3.24 µM | 4.61 µM | 3.12 µM | – | 3.29 µM | – | – | 1.86 µM | 1.76 µM | 2.1 µM | 1.67 µM | 1.74 µM | –
23 | CCn1cnc2c(Nc3cccc(Cl)c3)nc(N[C@@H]3CCCC[C@@H]3N)nc21 | 3.15 µM | 2.82 µM | 7.99 µM | 3.73 µM | – | 3.36 µM | – | – | 1.01 µM | 1.42 µM | 2.36 µM | 1.73 µM | 1.3 µM | –
24 | CCOC(=O)c1sc(Nc2ccc(Cl)cc2)nc1C | 9.04 µM | 4.75 µM | 6.2 µM | 3.29 µM | – | 3.42 µM | – | – | 2.47 µM | 2.12 µM | 2.22 µM | 1.48 µM | 1.37 µM | –
25 | COc1ccc(NC(=O)c2sc3nc(C)c(C(O)c4ccccc4)cc3c2N)cc1 (stereo not given) | > 100 µM | 0.971 µM | 6.86 µM | 51.6 µM | – | > 100 µM | – | – | 3.21 µM | 0.291 µM | 1.73 µM | 6.13 µM | 3.31 µM | –
26 | Nc1c(C(=O)Nc2ccccc2Cl)sc2nc3c(cc12)CCCCCC3 | > 100 µM | 1.1 µM | 14.6 µM | 29.1 µM | – | > 100 µM | – | – | 7.84 µM | 0.275 µM | 2.9 µM | 3.64 µM | 15.4 µM | –
27 | NCCNC(=S)S | > 100 µM | > 100 µM | 43 µM | > 100 µM | > 100 µM | > 100 µM | – | – | – | – | – | – | – | –
28 | COC1=CC(c2ccc[nH]2)=N/C1=C\c1[nH]c(C)c(C(=O)CCCCC(=O)Nc2ccccc2)c1C | 2.5 µM | 3.74 µM | – | 13.4 µM | – | 2.43 µM | – | – | 1.2 µM | 1.79 µM | – | 1.77 µM | 1.15 µM | –
29 | O=c1cnn2c(n1)sc1ccc3ccccc3c12 | – | – | – | – | – | – | > 100 µM | > 100 µM | – | – | – | – | – | –
30 | COc1ccc(C2=NN(C(C)=O)C(c3cn(-c4ccccc4)nc3-c3ccc(Cl)cc3)C2)cc1 (stereo not given) | > 100 µM | > 100 µM | > 100 µM | > 100 µM | – | > 100 µM | – | – | > 100 µM | > 100 µM | 4.88 µM | > 100 µM | > 100 µM | –
